Reference: patent publication US20060068496A1, “Differentiation of stem cells” (priority 2004, published 2006)

Assays:
Type in all cases: cell-based, human
[1] = system: ACTHep1-6; assay: Reversal of transformation of ACTHep1-6 by ponasterone A induced dominant negative RAS; details: 10 μM ponasterone A in Med3, 5% serum, 10,000 cells per well
Excerpt: Identification of a human hepatocyte cell line starting from human EG cells using sequential expression of an activated and a dominant negative transforming gene can be performed as follows. Human EG cells can be transfected with a construct containing the human hepatitis B virus core promoter/enhancer (SEQ ID NO:1) driving an activated H-RAS gene (SEQ ID NO:2) and also optionally containing an ecdysone inducible gene switch promoter (SEQ ID NO:3) driving a dominant negative H-RAS gene (SEQ ID NO:4) (Sandig et al., (1996) Gene Therapy 3, 1002-1009; Saez et al., (2000) Proc. Natl. Acad. Sci. 97, 14512-14517). The activated H-RAS can be transcribed after differentiation of the EG cells. Transformed hepatocytes can be isolated in soft agar, cloned, expanded and frozen. Cultures can be plated at low density then treated with ponasterone A to induce the dominant negative RAS and reverse transformation. Cells are expected to arrest growth at subconfluent densities. Their identity as hepatocytes can be confirmed by production of albumin, cyp1A and cyp3A.
ACTHep1-6 can be further characterized. Individual vials can be thawed and plated in Med3, 5% serum as described above. Cells can be expanded, then plated at a density of 10,000 cells per well in a 96 well plate. […] Cells are selected having the cuboidal appearance of hepatocytes with a prominent nucleus. […]

[2] = system: Hay1; assay: Zeocin sensitivity of Hay1 (standard titration curve, selection)
Procedure: In preparation for the establishment of the frt insert line, the sensitivity of Hay1 to zeocin was tested.
The plasmid pFrt/lac/Zeo (Invitrogen) can be transfected into Hay1 using Lipofectamine 2000. After 48 hrs, resistant cells can be selected by changing to medium containing 75 μg/ml Zeocin (Invitrogen). Non-resistant cells are dead in about seven days. An efficiency of about 1×10^−5/μg is expected. Approximately ten individual transfectants can be selected and tested for expression of lacZ. Copy number of the plasmid can be evaluated via Southern blotting. Transfectants with single insertions can be chosen for further analysis. To examine the behavior of the insert during differentiation, cells can be subjected to EB formation, followed by culture in Med3, 5% defined calf serum for one week. They can be reevaluated for lacZ expression. Since Zeo selection can be maintained, it is expected that all surviving cells will retain lacZ expression. It is a general strategy to maintain selective pressure on the inserts to insure expression of the surrounding DNA, as has been successfully employed in a number of other studies (Zweigerdt et al., (2001) Cytotherapy 5, 399-413; Liu et al. (2004) Stem Cells Dev. 13, 636-645; Schuldiner et al., (2003) Stem Cells 21, 257-265).

[3] = system: Hay1; assay: Growth of Hay1 in defined medium after removal of individual peptide hormone factors; details: for effect on growth of removal of the factor from the medium: Hay1, defined feeder free medium, factor removed individually
Procedure: The use of feeder layers complicates the use of stem cells for a variety of applications. Use of feeder layers dramatically raise the background in standard in vitro toxicology assays, such as MTT or resazurin reductions confounding the results. Hay1 can be grown routinely under defined conditions. Standard medium consists of KO-DMEM, 15% KO-serum replacement, glutamine, nonessential amino acids, β-MeSH, 10 ng/ml oncostatin M, 10 ng/ml SCF and 25 ng/ml bFGF. Using this medium, Hay1 continues to express the markers listed above and doubles approximately every three to four days. This is slightly slower than their doubling on feeder layers.
Growth of Hay1 was examined under various conditions known to affect stem cell growth and differentiation. Mouse and human EG cells require a source of gp130 signaling for growth in culture (Shamblott et al. (1998); Koshimuzu et al. (1996) Development 122, 1235-1242).
(§1) Since Oct 4 controls Nanog expression (Rodda et al. (2005)), it was expected that induction of Oct 4 would also raise nanog, and this is what was observed.

[4] = system: Oct 4 and Nanog; assay: Oct 4 and Nanog expression in Hay1 by real time RT-QPCR
Excerpt: While surface markers and alkaline phosphatase are convenient markers for stem cells, it has become clear that expression of the transcription factors Oct 4 and Nanog are fundamental characteristics of stem cells (Rodda et al. (2005) J. Biol. Chem. 280, 24731-24737; Chambers et al. (2003) Cell 113, 643-655). Hay1 was examined for expression of these factors using real time RT-QPCR. […] Biomol. Screen. 5, 249-254), a medium that is a mixture of Weymouth's MAB, Ham's F12 and William's E. It also contains 5% defined calf serum (Hyclone). Actin was used as a standard.
as §1

[5] = Hay1, FGF replaced after withdrawal

CC(C)CC[C@@H](O)[C@](C)(O)[C@H]1CC[C@@]2(O)C3=CC(=O)[C@@H]4C[C@@H](O)[C@@H](O)C[C@]4(C)[C@H]3CC[C@]12C [ponasterone A]
growth of cells after addition of ponasterone A [1]: stop growing over the next 24 hours and arrest at subconfluent densities

Cc1c(N)nc([C@H](CC(N)=O)NC[C@H](N)C(N)=O)nc1C(=O)N[C@H](C(=O)N[C@H](C)[C@@H](O)[C@H](C)C(=O)N[C@H](C(=O)NCCC1=N[C@@H](c2nc(C(=O)NCCCCN=C(N)N)cs2)CS1)[C@@H](C)O)[C@@H](O[C@@H]1O[C@@H](CO)[C@@H](O)[C@H](O)[C@@H]1O[C@H]1O[C@H](CO)[C@@H](O)[C@H](OC(N)=O)[C@@H]1O)c1cnc[nH]1 [zeocin]
effective selection concentration ([2]; Hay1, standard titration curve): 75 µg/mL
time until non-resistant cells are dead ([2]; Hay1 transfected with pFrt/lac/Zeo, medium containing 75 μg/ml Zeocin): about seven

human Stem Cell Factor [SCF]
effect on growth of removal of the factor from the medium [3]: some effect on growth

human basic Fibroblast Growth Factor [FGF]
Nanog expression after replacement of FGF [4, 5]: raise nanog
Oct 4 expression after replacement of FGF [4, 5]: returned Oct 4 expression to its former level
Oct 4 and Nanog expression after FGF withdrawal ([4]; Hay1, FGF withdrawn): dramatic reduction in expression
effect on growth of removal of the factor from the medium [3]: slight negative effect on growth
effect on growth of removal of the factor from the medium ([3]; listed as bFGF): some effect on growth
effect on morphology of removal of the factor ([3]; Hay1, defined medium, FGF removed): flatter and more spread out on the dish

oncostatin M
effect on growth of removal of the factor from the medium [3]: completely arrested the growth
effect on growth of removal of the factor from the medium ([3]; listed as Onc M): some effect on growth
alkaline phosphatase status of cultures after removal of the factor ([3]; Hay1, defined medium, factor removed): alkaline phosphatase negative within several days
